Laboratory results as given in publication PMC4618480.

Assays:
[1] = on-resin RCM stapling (Rink amide MBHA), 16 mol% Ru catalyst 1 (Grubbs I), then TFA/TIS/H2O cleavage; settings: the molecule shown is the open-chain precursor, DCE, 40.0 °C
[2] = RCM, 10 mol% Ru catalyst 5 (o-tolyl NHC Hoveyda type), quenched with ethyl vinyl ether; settings: DCE, 2.0 mM, 40.0 °C, 4.0 h
[3] = RCM, 10 mol% Ru catalyst 4 (nitro-Hoveyda/Grela), quenched with ethyl vinyl ether; settings: DCE, 2.0 mM, 40.0 °C, 4.0 h
[4] = RCM, 10 mol% Ru catalyst 1 (Grubbs I), quenched with ethyl vinyl ether; settings: DCE, 2.0 mM, 40.0 °C, 4.0 h
[5] = RCM, 10 mol% Ru catalyst 2 (Grubbs II), quenched with ethyl vinyl ether; settings: DCE, 2.0 mM, 40.0 °C, 4.0 h
[6] = RCM, 10 mol% Ru catalyst 3 (Hoveyda-Grubbs II), quenched with ethyl vinyl ether; settings: DCE, 2.0 mM, 40.0 °C, 4.0 h
[7] = RCM, 10 mol% Z-selective cyclometalated Ru catalyst 6 (Mes), quenched with ethyl vinyl ether; settings: DCE, 2.0 mM, 40.0 °C, 4.0 h
[8] = RCM, 10 mol% Z-selective cyclometalated Ru catalyst 7 (Dipp), quenched with ethyl vinyl ether; settings: DCE, 2.0 mM, 40.0 °C, 4.0 h
[9] = on-resin RCM stapling (Rink amide MBHA), 16 mol% Z-selective Ru catalyst 6 (Mes), then TFA/TIS/H2O cleavage; settings: the molecule shown is the open-chain precursor, DCE, 40.0 °C
[10] = on-resin RCM stapling (Rink amide MBHA), 16 mol% Z-selective Ru catalyst 7 (Dipp), then TFA/TIS/H2O cleavage; settings: the molecule shown is the open-chain precursor, DCE, 40.0 °C
[11] = on-resin RCM stapling (Rink amide MBHA), 16 mol% Ru catalyst 3 (Hoveyda-Grubbs II), then TFA/TIS/H2O cleavage; settings: the molecule shown is the open-chain precursor, DCE, 40.0 °C
[12] = on-resin RCM stapling (Rink amide MBHA), 16 mol% Ru catalyst 4 (nitro-Hoveyda/Grela), then TFA/TIS/H2O cleavage; settings: the molecule shown is the open-chain precursor, DCE, 40.0 °C
[13] = on-resin RCM stapling (Rink amide MBHA), 16 mol% Ru catalyst 2 (Grubbs II), then TFA/TIS/H2O cleavage; settings: the molecule shown is the open-chain precursor, DCE, 40.0 °C
[14] = on-resin RCM stapling (Rink amide MBHA), 16 mol% Ru catalyst 5 (o-tolyl NHC Hoveyda type), then TFA/TIS/H2O cleavage; settings: the molecule shown is the open-chain precursor, DCE, 40.0 °C
[15] = from C=CCSC[C@H](NC(=O)OC(C)(C)C)C(=O)N[C@@H](CC(C)C)C(=O)N[C@@H](CC(C)C)C(=O)N[C@@H](CSCC=C)C(=O)OC, 18-membered ring
[16] = from C=CCOC[C@H](NC(=O)OC(C)(C)C)C(=O)N[C@@H](CC(C)C)C(=O)N[C@@H](CC(C)C)C(=O)N[C@@H](COCC=C)C(=O)OC, 18-membered ring
[17] = from C=CCOc1ccc(C[C@H](NC(=O)OC(C)(C)C)C(=O)N[C@@H](CC(C)C)C(=O)N[C@@H](CC=C)C(=O)OC)cc1, 17-membered ring
[18] = from C=CCCOc1ccc(C[C@H](NC(=O)OC(C)(C)C)C(=O)N[C@@H](CC(C)C)C(=O)N[C@@H](CC=C)C(=O)OC)cc1, 18-membered ring
[19] = from C=CCCOc1ccc(C[C@H](NC(=O)OC(C)(C)C)C(=O)N[C@@H](CC(C)C)C(=O)N[C@@H](CCC=C)C(=O)OC)cc1, 19-membered ring
[20] = from C=CC[C@H](NC(=O)OC(C)(C)C)C(=O)N[C@@H](Cc1cn(S(=O)(=O)c2ccc(C)cc2)cn1)C(=O)NCC(=O)N[C@@H](CC=C)C(=O)OC, 14-membered ring
[21] = from C=CC[C@H](NC(=O)OC(C)(C)C)C(=O)N[C@@H](CC(C)C)C(=O)N[C@@H](CC(C)C)C(=O)N[C@@H](CC=C)C(=O)OCc1ccccc1, 14-membered ring
[22] = from C=CC[C@H](NC(=O)CNC(=O)[C@@H]1CCCN1C(=O)[C@H](CC=C)NC(=O)OC(C)(C)C)C(=O)OC, 14-membered ring

Compound: C=CCCCCCC[C@@](C)(NC(=O)[C@H](CC(N)=O)NC(=O)[C@@H](NC(=O)OCC1c2ccccc2-c2ccccc21)C(C)C)C(=O)N[C@@H](CCCCN)C(=O)N[C@@H](CCCCN)C(=O)N[C@H](C(=O)N[C@@H](CC(C)C)C(=O)NCC(=O)N[C@@H](CCCCN)C(=O)N[C@@](C)(CCCC=C)C(=O)N[C@H](C(=O)N[C@@H](CCCCN)C(=O)N[C@H](C(=O)N[C@H](C(=O)N[C@@H](CCCCN)C(N)=O)C(C)C)C(C)C)[C@@H](C)CC)[C@@H](C)CC
- ring closure, conversion by HPLC ([1]; 33-membered ring): 88%

Compound: C=CCCCCCC[C@@](C)(NC(=O)[C@H](Cc1ccccc1)NC(=O)[C@@H](NC(=O)[C@H](CCC(N)=O)NC(=O)[C@H](CCC(N)=O)NC(=O)[C@H](CO)NC(=O)[C@H](CCC(N)=O)NC(=O)OCC1c2ccccc2-c2ccccc21)[C@@H](C)O)C(=O)N[C@@H](CC(N)=O)C(=O)N[C@@H](CC(C)C)C(=O)N[C@@H](Cc1c[nH]c2ccccc12)C(=O)N[C@@H](CCCNC(=N)N)C(=O)N[C@@H](CC(C)C)C(=O)N[C@@H](CC(C)C)C(=O)N[C@@](C)(CCCC=C)C(=O)N[C@@H](CCC(N)=O)C(=O)N[C@@H](CC(N)=O)C(N)=O
- ring closure, conversion by HPLC ([1]; 33-membered ring): 92%

Compound: C=CCCC[C@](C)(NC(=O)[C@H](Cc1ccccc1)NC(=O)[C@@H](NC(=O)[C@H](Cc1c[nH]cn1)NC(=O)[C@](C)(CCCC=C)NC(=O)[C@H](CCCNC(=N)N)NC(=O)[C@H](CCC(=O)O)NC(=O)[C@H](CC(C)C)NC(=O)[C@H](CCC(=O)O)NC(=O)[C@H](C)NC(=O)OCC1c2ccccc2-c2ccccc21)[C@@H](C)O)C(=O)N[C@@H](CC(C)C)C(=O)N[C@@H](Cc1c[nH]cn1)C(=O)N[C@@H](CCC(N)=O)C(=O)N[C@@H](CCCNC(=N)N)C(N)=O
- ring closure, conversion by HPLC ([1]; 21-membered ring): 93%

Compound: COC(=O)[C@@H]1CSCC=CCSC[C@H](NC(=O)OC(C)(C)C)C(=O)N[C@@H](CC(C)C)C(=O)N[C@@H](CC(C)C)C(=O)N1 [Boc-Cys(S-allyl)-Leu-Leu-Cys(S-allyl)-OMe]
- ring closure, isolated yield [2, 15]: 42%
- ring closure, isolated yield [3, 15]: 83%
- ring closure, isolated yield [4, 15]: 77%
- ring closure, isolated yield [5, 15]: 81%
- ring closure, isolated yield [6, 15]: 79%
- ring closure, isolated yield [7, 15]: 40%
- ring closure, isolated yield [8, 15]: 33%

Compound: COC(=O)[C@@H]1COCC=CCOC[C@H](NC(=O)OC(C)(C)C)C(=O)N[C@@H](CC(C)C)C(=O)N[C@@H](CC(C)C)C(=O)N1 [Boc-Ser(O-allyl)-Leu-Leu-Ser(O-allyl)-OMe]
- ring closure, isolated yield [2, 16]: 44%
- ring closure, isolated yield [3, 16]: 74%
- ring closure, isolated yield [4, 16]: 73%
- ring closure, isolated yield [5, 16]: 76%
- ring closure, isolated yield [7, 16]: 36%
- ring closure, isolated yield [8, 16]: 34%

Compound: COC(=O)[C@@H]1CC=CCOc2ccc(cc2)C[C@H](NC(=O)OC(C)(C)C)C(=O)N[C@@H](CC(C)C)C(=O)N1 [Boc-Tyr(O-allyl)-Leu-allylGly-OMe]
- ring closure, isolated yield [2, 17]: 45%
- ring closure, isolated yield [3, 17]: 66%
- ring closure, isolated yield [4, 17]: 58%
- ring closure, isolated yield [5, 17]: 71%
- ring closure, isolated yield [6, 17]: 63%
- ring closure, isolated yield [7, 17]: 47%
- ring closure, isolated yield [8, 17]: 41%

Compound: COC(=O)[C@@H]1CC=CCCOc2ccc(cc2)C[C@H](NC(=O)OC(C)(C)C)C(=O)N[C@@H](CC(C)C)C(=O)N1 [Boc-Tyr(O-homoallyl)-Leu-allylGly-OMe]
- ring closure, isolated yield [2, 18]: 24%
- ring closure, isolated yield [3, 18]: 60%
- ring closure, isolated yield [4, 18]: 54%
- ring closure, isolated yield [5, 18]: 61%
- ring closure, isolated yield [6, 18]: 55%
- ring closure, isolated yield [7, 18]: 21%
- ring closure, isolated yield [8, 18]: 17%

Compound: COC(=O)[C@@H]1CCC=CCCOc2ccc(cc2)C[C@H](NC(=O)OC(C)(C)C)C(=O)N[C@@H](CC(C)C)C(=O)N1 [Boc-Tyr(O-homoallyl)-Leu-homoallylGly-OMe]
- ring closure, isolated yield [2, 19]: 44%
- ring closure, isolated yield [3, 19]: 66%
- ring closure, isolated yield [4, 19]: 68%
- ring closure, isolated yield [5, 19]: 77%
- ring closure, isolated yield [6, 19]: 70%
- ring closure, isolated yield [7, 19]: 26%
- ring closure, isolated yield [8, 19]: 24%

Compound: COC(=O)[C@@H]1CC=CC[C@H](NC(=O)OC(C)(C)C)C(=O)N[C@@H](Cc2cn(S(=O)(=O)c3ccc(C)cc3)cn2)C(=O)NCC(=O)N1 [Boc-allylGly-His(Tos)-Gly-allylGly-OMe]
- ring closure, isolated yield [2, 20]: < 5%
- ring closure, isolated yield [3, 20]: 12%
- ring closure, isolated yield [4, 20]: 14%
- ring closure, isolated yield [5, 20]: 18%
- ring closure, isolated yield [6, 20]: < 10%

Compound: CC(C)C[C@@H]1NC(=O)[C@@H](NC(=O)OC(C)(C)C)CC=CC[C@@H](C(=O)OCc2ccccc2)NC(=O)[C@H](CC(C)C)NC1=O [Boc-allylGly-Leu-Leu-allylGly-OBn]
- ring closure, isolated yield [2, 21]: 39%
- ring closure, isolated yield [3, 21]: 64%
- ring closure, isolated yield [4, 21]: 70%
- ring closure, isolated yield [5, 21]: 74%
- ring closure, isolated yield [6, 21]: 61%
- ring closure, isolated yield [7, 21]: 32%
- ring closure, isolated yield [8, 21]: 30%

Compound: COC(=O)[C@@H]1CC=CC[C@H](NC(=O)OC(C)(C)C)C(=O)N2CCC[C@H]2C(=O)NCC(=O)N1 [Boc-allylGly-Pro-Gly-allylGly-OMe]
- ring closure, isolated yield [2, 22]: 20%
- ring closure, isolated yield [3, 22]: 36%
- ring closure, isolated yield [4, 22]: 37%
- ring closure, isolated yield [5, 22]: 48%
- ring closure, isolated yield [6, 22]: 41%
- ring closure, isolated yield [7, 22]: 17%
- ring closure, isolated yield [8, 22]: 18%

Compound: C=CCCC[C@](C)(NC(=O)[C@H](CC(C)C)NC(=O)[C@H](CC(C)C)NC(=O)[C@H](CC(=O)O)NC(=O)[C@](C)(CCCC=C)NC(=O)[C@H](Cc1ccccc1)NC(=O)[C@@H](NC(=O)[C@@H](NC(=O)OCC1c2ccccc2-c2ccccc21)[C@@H](C)CC)[C@@H](C)O)C(=O)N[C@@H](Cc1ccc(O)cc1)C(=O)N[C@@H](Cc1ccc(O)cc1)C(=O)NCC(=O)N1CCC[C@H]1C(N)=O [Fmoc-Ile-Thr-Phe-S5-Asp-Leu-Leu-S5-Tyr-Tyr-Gly-Pro-NH-resin]
- ring closure, conversion by HPLC ([1]; 21-membered ring): 90%

Compound: Fmoc-Ala-Glu-Leu-Glu-Arg-S5-His-Thr-Phe-S5-Leu-His-Gln-Arg-NH-resin
- ring closure, conversion by HPLC ([9]; 21-membered ring): 80%
- ring closure, conversion by HPLC ([10]; 21-membered ring): 70%
- ring closure, conversion by HPLC ([11]; 21-membered ring): 88%
- ring closure, conversion by HPLC ([12]; 21-membered ring): 92%
- ring closure, conversion by HPLC ([13]; 21-membered ring): 85%

Compound: Fmoc-Gln-Ser-Gln-Gln-Thr-Phe-R8-Asn-Leu-Trp-Arg-Leu-Leu-S5-Gln-Asn-NH-resin
- ring closure, conversion by HPLC ([9]; 33-membered ring): 75%
- ring closure, conversion by HPLC ([10]; 33-membered ring): 70%
- ring closure, conversion by HPLC ([14]; 33-membered ring): 80%
- ring closure, conversion by HPLC ([12]; 33-membered ring): 85%
- ring closure, conversion by HPLC ([13]; 33-membered ring): 90%

Compound: Fmoc-Ile-Thr-Phe-S5-Asp-Leu-Leu-S5-Tyr-Tyr-Gly-Pro-NH-resin
- ring closure, conversion by HPLC ([10]; 21-membered ring): 75%
- ring closure, conversion by HPLC ([11]; 21-membered ring): 81%
- ring closure, conversion by HPLC ([14]; 21-membered ring): 70%
- ring closure, conversion by HPLC ([12]; 21-membered ring): 80%
- ring closure, conversion by HPLC ([13]; 21-membered ring): 90%

Compound: Fmoc-Val-Asn-R8-Lys-Lys-Ile-Leu-Gly-Lys-S5-Ile-Lys-Val-Val-Lys-NH-resin
- ring closure, conversion by HPLC ([9]; 33-membered ring): 70%
- ring closure, conversion by HPLC ([10]; 33-membered ring): 55%
- ring closure, conversion by HPLC ([11]; 33-membered ring): 80%
- ring closure, conversion by HPLC ([14]; 33-membered ring): 60%
- ring closure, conversion by HPLC ([12]; 33-membered ring): 85%
- ring closure, conversion by HPLC ([13]; 33-membered ring): 94%
